Test results taken from patent publication US9376436B2, “2-(pyridin-2yl)-1, 7-diaza-spiro [4.4] nonane-6-one compound as voltage-gated sodium channels modulators” (CONVERGENCE PHARMACEUTICALS LIMITED, priority 2011, dated 2016).
Counter-ions that a name gives are not always drawn. Like-named read-outs stand apart in the source and are kept apart here.

Molecular target: T1, hNaV1.7 (Homo sapiens, UniProt Q15858)
T1 construct: expressed in transfected cells; host or cells: HEK293
Experiment: QPatch NaV1.7 assay (whole-cell patch clamp, QPatch16x)
Format: cell-based
Conditions: HEK293-hNaV1.7 cells
In short: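 HEK293 cells expressing hNaV1.7 recorded by automated whole-cell patch clamp (CsF internal, pH 7.3). Peak currents from 20 ms steps to 0 mV measured at holding potentials of −90 mV and V1/2 SSI; four-point cumulative concentrations, 120 s each, Hill fits gave pIC50 at each potential.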

[1] = holding voltage V1/2 SSI (half of channels inactivated), read-out: QP Nav1.7 SSI vhalf pIC50 (converted)
[2] = holding voltage −90 mV (most channels closed), read-out: QP Nav1.7 −90 mV pIC50 (converted)

T1 sequence (Q15858 whole entry): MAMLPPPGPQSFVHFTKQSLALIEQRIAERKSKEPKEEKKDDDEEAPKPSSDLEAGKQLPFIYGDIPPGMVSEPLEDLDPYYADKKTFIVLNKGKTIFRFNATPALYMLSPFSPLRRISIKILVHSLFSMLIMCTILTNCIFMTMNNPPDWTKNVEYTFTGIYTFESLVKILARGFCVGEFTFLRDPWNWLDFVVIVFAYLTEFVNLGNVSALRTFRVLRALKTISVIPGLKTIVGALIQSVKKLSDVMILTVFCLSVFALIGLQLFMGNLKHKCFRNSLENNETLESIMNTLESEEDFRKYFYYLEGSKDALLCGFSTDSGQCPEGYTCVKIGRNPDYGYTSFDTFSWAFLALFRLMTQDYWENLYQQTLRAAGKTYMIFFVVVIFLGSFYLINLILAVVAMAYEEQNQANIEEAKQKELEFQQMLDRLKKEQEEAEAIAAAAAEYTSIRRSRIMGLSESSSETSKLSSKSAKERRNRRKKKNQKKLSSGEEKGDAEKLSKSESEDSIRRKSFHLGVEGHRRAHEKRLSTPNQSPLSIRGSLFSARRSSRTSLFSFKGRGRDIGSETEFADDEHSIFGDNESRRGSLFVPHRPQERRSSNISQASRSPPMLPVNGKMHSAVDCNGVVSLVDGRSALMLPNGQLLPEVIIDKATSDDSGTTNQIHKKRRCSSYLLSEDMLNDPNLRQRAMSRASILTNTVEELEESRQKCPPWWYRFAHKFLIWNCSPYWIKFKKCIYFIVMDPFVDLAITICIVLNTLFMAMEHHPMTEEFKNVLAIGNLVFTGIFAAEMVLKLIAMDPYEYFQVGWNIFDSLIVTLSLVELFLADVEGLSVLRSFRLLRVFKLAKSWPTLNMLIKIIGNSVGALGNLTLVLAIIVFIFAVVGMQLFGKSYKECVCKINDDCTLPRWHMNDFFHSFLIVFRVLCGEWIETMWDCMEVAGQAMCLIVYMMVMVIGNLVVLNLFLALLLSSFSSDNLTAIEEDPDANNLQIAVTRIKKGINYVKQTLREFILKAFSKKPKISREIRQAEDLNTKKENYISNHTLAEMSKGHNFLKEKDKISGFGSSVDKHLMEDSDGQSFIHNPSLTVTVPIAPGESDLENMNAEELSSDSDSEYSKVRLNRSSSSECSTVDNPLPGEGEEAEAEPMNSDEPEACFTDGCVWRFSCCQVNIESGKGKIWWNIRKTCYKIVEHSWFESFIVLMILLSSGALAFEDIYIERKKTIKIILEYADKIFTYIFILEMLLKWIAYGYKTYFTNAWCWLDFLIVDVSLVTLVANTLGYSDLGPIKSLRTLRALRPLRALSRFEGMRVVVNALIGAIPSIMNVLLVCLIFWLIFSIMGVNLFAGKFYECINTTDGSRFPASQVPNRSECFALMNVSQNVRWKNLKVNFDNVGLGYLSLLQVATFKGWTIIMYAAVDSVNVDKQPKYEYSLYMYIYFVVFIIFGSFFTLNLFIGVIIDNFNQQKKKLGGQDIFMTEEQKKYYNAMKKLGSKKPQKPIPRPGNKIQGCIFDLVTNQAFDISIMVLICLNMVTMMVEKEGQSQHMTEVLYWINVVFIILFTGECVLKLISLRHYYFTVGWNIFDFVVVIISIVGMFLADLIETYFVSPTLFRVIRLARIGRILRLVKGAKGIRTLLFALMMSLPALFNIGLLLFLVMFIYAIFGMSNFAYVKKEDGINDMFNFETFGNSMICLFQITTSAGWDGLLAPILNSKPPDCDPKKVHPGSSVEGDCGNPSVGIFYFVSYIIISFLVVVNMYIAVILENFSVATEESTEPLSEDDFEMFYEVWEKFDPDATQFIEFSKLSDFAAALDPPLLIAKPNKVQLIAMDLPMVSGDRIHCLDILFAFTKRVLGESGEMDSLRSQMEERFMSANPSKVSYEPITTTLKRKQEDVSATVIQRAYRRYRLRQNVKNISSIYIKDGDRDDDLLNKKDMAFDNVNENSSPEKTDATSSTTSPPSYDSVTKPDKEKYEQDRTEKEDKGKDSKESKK

SMILES | IC50 [1] | IC50 [2]
CCOc1ccc(F)c(-c2cc(C)nc([C@@H]3CC[C@]4(CCN(C)C4=O)N3)c2)c1 [Example 120, (2S,5R)-2-[4-(5-Ethoxy-2-fluoro-phenyl)-6-methyl-pyridin-2-yl]-7-methyl-1,7-diaza-spiro[4.4]nonan-6-one hydrochloride] | 0.794 µM | 20 µM
COc1cc(C(F)(F)F)ccc1-c1cc(C)nc([C@@H]2CC[C@@]3(CCN(C)C3=O)N2)c1 [Example 122, (2S,5S)-2-[4-[2-Methoxy-4-(trifluoromethyl)phenyl]-6-methyl-2-pyridyl]-7-methyl-1,7-diazaspiro[4.4]nonan-6-one hydrochloride] | 3.16 µM | 7.94 µM
CCOc1cc(-c2cc(C)nc([C@H]3CC[C@]4(CCN(C)C4=O)N3)c2)ccc1F [Example 124, (2R,5R)-2-[4-(3-Ethoxy-4-fluoro-phenyl)-6-methyl-2-pyridyl]-7-methyl-1,7-diazaspio[4.4]nonan-6-one hydrochloride] | 7.94 µM | 126 µM
CCOc1cc(-c2cc(C)nc([C@H]3CC[C@@]4(CCN(C)C4=O)N3)c2)ccc1F [Example 125, hydrochloride] | 25.1 µM | 158 µM
CCOc1cc(-c2cc(C)nc([C@@H]3CC[C@@]4(CCN(C)C4=O)N3)c2)ccc1F [Example 126, (2S,5S)-2-[4-(3-Ethoxy-4-fluoro-phenyl)-6-methyl-2-pyridyl]-7-methyl-1,7-diazaspiro[4.4]nonan-6-one hydrochloride] | 20 µM | 316 µM
Cc1cc(-c2cccc(OC(F)(F)F)c2)cc([C@@H]2CC[C@]3(CCN(C)C3=O)N2)n1 [Example 128, (2S,5R)-7-Methyl-2-[6-methyl-4-[3-(trifluoromethoxy)phenyl]-2-pyridyl]-1,7-diazaspiro[4.4]nonan-6-one hydrochloride] | 5.01 µM | 20 µM
COc1cc(C(F)(F)F)ccc1-c1cc([C@H]2CC[C@]3(CCN(C)C3=O)N2)ncc1C [Example 130, (2R,5R)-2-[4-[2-Methoxy-4-(trifluoromethyl)phenyl]-5-methyl-2-pyridyl]-7-methyl-1,7-diazaspiro[4.4]nonan-6-one hydrochloride] | 7.94 µM | 158 µM
COc1cc(C(F)(F)F)ccc1-c1cc([C@H]2CC[C@@]3(CCN(C)C3=O)N2)ncc1C [Example 131, (2R,5S)-2-[4-[2-Methoxy-4-(trifluoromethyl)phenyl]-5-methyl-2-pyridyl]-7-methyl-1,7-diazaspiro[4.4]nonan-6-one hydrochloride] | 2 µM | 100 µM
COc1cc(C(F)(F)F)ccc1-c1cc([C@@H]2CC[C@@]3(CCN(C)C3=O)N2)ncc1C [Example 132, (2S,5S)-2-[4-[2-Methoxy-4-(trifluoromethyl)phenyl]-5-methyl-2-pyridyl]-7-methyl-1,7-diazaspiro[4.4]nonan-6-one hydrochloride] | 39.8 µM | 251 µM
CCOc1ccc(F)c(-c2cc([C@H]3CC[C@]4(CCN(C)C4=O)N3)ncc2C)c1 [Example 140, (2R,5R)-2-[4-(5-Ethoxy-2-fluoro-phenyl)-5-methyl-2-pyridyl]-7-methyl-1,7-diazaspiro[4.4]nonan-6-one hydrochloride] | 31.6 µM | 100 µM
CCOc1ccc(F)c(-c2cc([C@H]3CC[C@]4(CCN(C)C4=O)N3)nc(C)c2C)c1 [Example 141, (2R,5R)-2-[4-(5-Ethoxy-2-fluoro-phenyl)-5,6-dimethyl-2-pyridyl]-7-methyl-1,7-diazaspiro[4.4]nonan-6-one hydrochloride] | 6.31 µM | 63.1 µM
CCOc1ccc(F)c(-c2cc([C@@H]3CC[C@@]4(CCN(C)C4=O)N3)nc(C)c2C)c1 [Example 142, (2S,5S)-2-[4-(5-Ethoxy-2-fluoro-phenyl)-5,6-dimethyl-2-pyridyl]-7-methyl-1,7-diazaspiro[4.4]nonan-6-one hydrochloride] | 0.794 µM | 15.8 µM
CCOc1ccc(F)c(-c2cc([C@@H]3CC[C@]4(CCN(C)C4=O)N3)nc(C)c2C)c1 [Example 143, (2S,5R)-2-[4-(5-Ethoxy-2-fluoro-phenyl)-5,6-dimethyl-2-pyridyl]-7-methyl-1,7-diazaspiro[4.4]nonan-6-one hydrochloride] | 10 µM | 63.1 µM
CCOc1ccc(F)c(-c2ccnc([C@H]3CC[C@]4(CCN(C)C4=O)N3)c2)c1 [Example 146, (2R,5R)-2-[4-(5-Ethoxy-2-fluoro-phenyl)-2-pyridyl]-7-methyl-1,7-diazaspiro[4.4]nonan-6-one hydrochloride] | 2 µM | 31.6 µM
CCOc1cc(-c2ccnc([C@H]3CC[C@@]4(CCN(C)C4=O)N3)c2)c(F)cc1F [Example 149, (2R,5S)-2-[4-(5-Ethoxy-2,4-difluoro-phenyl)-2-pyridyl]-7-methyl-1,7-diazaspiro[4.4]nonan-6-one hydrochloride] | 25.1 µM | 398 µM
CCOc1cc(-c2ccnc([C@@H]3CC[C@@]4(CCN(C)C4=O)N3)c2)c(F)cc1C [Example 150, (2S,5S)-2-[4-(5-Ethoxy-2-fluoro-4-methyl-phenyl)-2-pyridyl]-7-methyl-1,7-diazaspiro[4.4]nonan-6-one hydrochloride] | 12.6 µM | 126 µM
CCOc1cc(-c2ccnc([C@H]3CC[C@@]4(CCN(C)C4=O)N3)c2)c(F)cc1C [Example 151, (2R,5S)-2-[4-(5-Ethoxy-2-fluoro-4-methyl-phenyl)-2-pyridyl]-7-methyl-1,7-diazaspiro[4.4]nonan-6-one hydrochloride] | 15.8 µM | 100 µM
COc1cnc([C@H]2CC[C@]3(CCN(C)C3=O)N2)cc1-c1ccc(C(F)(F)F)cc1 [Example 152, (2R,5R)-2-[5-Methoxy-4-[4-(trifluoromethyl)phenyl]-2-pyridyl]-7-methyl-1,7-diazaspiro[4.4]nonan-6-one hydrochloride] | 15.8 µM | 200 µM

The remaining lines, values ahead:

IC50 [1] | IC50 [2] | SMILES
3.98 µM | 31.6 µM | O=C1NCC[C@@]12CC[C@@H](c1cc(-c3cccc(OC(F)(F)F)c3)ccn1)N2 [Example 119, (2S,5S)-2-[4-[3-(Trifluoromethoxy)phenyl]-2-pyridyl]-1,7-diazaspiro[4.4]nonan-6-one hydrochloride]
0.631 µM | 12.6 µM | CCOc1ccc(F)c(-c2cc(C)nc([C@H]3CC[C@]4(CCN(C)C4=O)N3)c2)c1 [Example 121, (2R,5R)-2-[4-(5-Ethoxy-2-fluoro-phenyl)-6-methyl-pyridin-2-yl]-7-methyl-1,7-diaza-spiro[4.4]nonan-6-one hydrochloride]
39.8 µM | 251 µM | CCOc1cc(-c2cc(C)nc([C@@H]3CC[C@]4(CCN(C)C4=O)N3)c2)ccc1F [Example 123, (2S,5R)-2-[4-(3-Ethoxy-4-fluoro-phenyl)-6-methyl-2-pyridyl]-7-methyl-1,7-diazaspiro[4.4]nonan-6-one hydrochloride]
12.6 µM | 12.6 µM | Cc1cc(-c2cccc(OC(F)(F)F)c2)cc([C@H]2CC[C@@]3(CCN(C)C3=O)N2)n1 [Example 127, (2R,5S)-7-Methyl-2-[6-methyl-4-[3-(trifluoromethoxy)phenyl]-2-pyridyl]-1,7-diazaspiro[4.4]nonan-6-one hydrochloride]
20 µM | 200 µM | COc1cc(C(F)(F)F)ccc1-c1cc([C@@H]2CC[C@]3(CCN(C)C3=O)N2)ncc1C [Example 129, (2S,5R)-2-[4-[2-Methoxy-4-(trifluoromethyl)phenyl]-5-methyl-2-pyridyl]-7-methyl-1,7-diazaspiro[4.4]nonan-6-one hydrochloride]
20 µM | 158 µM | CCOc1ccc(F)c(-c2cc([C@H]3CC[C@@]4(CCN(C)C4=O)N3)ncc2C)c1 [Example 137, (2R,5S)-2-[4-(5-Ethoxy-2-fluoro-phenyl)-5-methyl-2-pyridyl]-7-methyl-1,7-diazaspiro[4.4]nonan-6-one hydrochloride]
25.1 µM | 200 µM | CCOc1ccc(F)c(-c2cc([C@@H]3CC[C@@]4(CCN(C)C4=O)N3)ncc2C)c1 [Example 138, (2S,5S)-2-[4-(5-Ethoxy-2-fluoro-phenyl)-5-methyl-2-pyridyl]-7-methyl-1,7-diazaspiro[4.4]nonan-6-one hydrochloride]
39.8 µM | 251 µM | CCOc1ccc(F)c(-c2cc([C@@H]3CC[C@]4(CCN(C)C4=O)N3)ncc2C)c1 [Example 139, (2S,5R)-2-[4-(5-Ethoxy-2-fluoro-phenyl)-5-methyl-2-pyridyl]-7-methyl-1,7-diazaspiro[4.4]nonan-6-one hydrochloride]
3.98 µM | 31.6 µM | CCOc1ccc(F)c(-c2cc([C@H]3CC[C@@]4(CCN(C)C4=O)N3)nc(C)c2C)c1 [Example 144, (2R,5S)-2-[4-(5-Ethoxy-2-fluoro-phenyl)-5,6-dimethyl-2-pyridyl]-7-methyl-1,7-diazaspiro[4.4]nonan-6-one hydrochloride]
6.31 µM | 79.4 µM | CCOc1ccc(F)c(-c2ccnc([C@@H]3CC[C@]4(CCN(C)C4=O)N3)c2)c1 [Example 145, (2S,5R)-2-[4-(5-Ethoxy-2-fluoro-phenyl)-2-pyridyl]-7-methyl-1,7-diazaspiro[4.4]nonan-6-one hydrochloride]
3.16 µM | 50.1 µM | CCOc1ccc(F)c(-c2ccnc([C@@H]3CC[C@@]4(CCN(C)C4=O)N3)c2)c1 [Example 147, (2S,5S)-2-[4-(5-Ethoxy-2-fluoro-phenyl)-2-pyridyl]-7-methyl-1,7-diazaspiro[4.4]nonan-6-one hydrochloride]
31.6 µM | 398 µM | CCOc1cc(-c2ccnc([C@@H]3CC[C@@]4(CCN(C)C4=O)N3)c2)c(F)cc1F [Example 148, (2S,5S)-2-[4-(5-Ethoxy-2,4-difluoro-phenyl)-2-pyridyl]-7-methyl-1,7-diazaspiro[4.4]nonan-6-one hydrochloride]
